What all share (type): cell-based
One assay concerns MMP-13. Briefly: MMP-13 ELISA on supernatants of chondrocytes stimulated with IL-1β. The note with it: Homo sapiens, Chondrocyte; chondrocytes pretreated 2 hours, IL-1β 24 hours; protein (ELISA); N/A = did not affect MMP levels; read-out: IC50 constants for inhibition of MMP activity, MMP-13. The protocol:
(§1) The effects of dendrimer compounds comprising n-acyl urea terminal moieties (i.e., dd-NAU) were evaluated for MMP activity in chondrocytes. […] In some instances, these effects were compared to dendrimer compounds comprising glucosamine terminal moieties (i.e., dd-Gln) and/or ethyl dimethylaminopropylurea (EDU). Chondrocytes were grown to confluency in 6-well plates (4 donors). The chondrocytes were pretreated with dendrimers (e.g., dd-NAU or dd-Gln) or EDU for 2 hours and then stimulated with IL-1β for 24 hours. Supernatants were collected and MMP-1, -3, and 13 ELISA assays were performed. The cells were collected for RNA analysis (3 donors).
(§2) Chondrocytes were grown to confluency in 6-well plates (2 donors). […] Supernatants were collected and MMP-1, -3, and 13 ELISA assays were performed. Neutral Red assays and Calcien AM assays were also performed on the chondrocytes to determine cell viability.

In another assay the test system is MMP-1. Kind of assay: MMP-1 ELISA on supernatants of chondrocytes stimulated with IL-1β. The note with it: Homo sapiens, Chondrocyte; chondrocytes pretreated 2 hours, IL-1β 24 hours; protein (ELISA); N/A = did not affect MMP levels; read-out: IC50 constants for inhibition of MMP activity, MMP-1. Here is the method:
as §1, §2
(ELISA stands for enzyme-linked immunosorbent assay.)

The subject of another assay is MMP-3. Briefly: MMP-3 ELISA on supernatants of chondrocytes stimulated with IL-1β. The settings on record: Homo sapiens, Chondrocyte; chondrocytes pretreated 2 hours, IL-1β 24 hours; protein (ELISA); N/A = did not affect MMP levels; read-out: IC50 constants for inhibition of MMP activity, MMP-3. The protocol:
as §1, §2

In general, IC50 refers to the midpoint of a concentration-inhibition curve. As to `N[C@H]1C(O)O[C@H](CO)[C@@H](O)[C@@H]1O` (stereo partly drawn) [Glucosamine], the IC50 amounted to 1400 µM with MMP-13, 1420 µM in the assay with MMP-1 and 600 µM with MMP-3.

These data come from patent publication US9283247B2, “Chemically modified dendrimers” (Genzyme Corporation, priority 2007, dated 2016).
